Molecular target: T1, transforming growth factor-β receptor type-I (TGF-β RI) (Homo sapiens, UniProt P36897)
T1 sequence (P36897 34-503): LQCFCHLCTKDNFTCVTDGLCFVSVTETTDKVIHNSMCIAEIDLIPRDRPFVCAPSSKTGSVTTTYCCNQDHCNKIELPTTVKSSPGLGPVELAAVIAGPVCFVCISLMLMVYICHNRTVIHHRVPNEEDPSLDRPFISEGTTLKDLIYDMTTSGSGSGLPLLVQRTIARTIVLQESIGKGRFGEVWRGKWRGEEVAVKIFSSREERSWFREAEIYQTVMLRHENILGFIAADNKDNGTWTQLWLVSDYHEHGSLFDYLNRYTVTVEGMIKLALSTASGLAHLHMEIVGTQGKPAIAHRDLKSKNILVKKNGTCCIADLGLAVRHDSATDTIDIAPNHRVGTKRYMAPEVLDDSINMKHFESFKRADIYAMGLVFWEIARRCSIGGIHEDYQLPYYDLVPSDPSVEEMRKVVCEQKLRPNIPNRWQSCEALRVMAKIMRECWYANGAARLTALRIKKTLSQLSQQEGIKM
Format: biochemical

IC50: 2210 ± 266 nM
SMILES: Oc1ccc(/C=C/c2cc(O)cc(O)c2)cc1 [compound 12, Resveratrol]

— article PMC9805938 (Journal of Pharmaceutical Analysis, 2020)
